# Reference: patent US9382216B2, “Substituted morpholines as modulators for the calcium sensing receptor” (LUPIN LIMITED, priority 2011, dated 2016)
# Where a name gives a salt, the structure may show the parent alone.
# Target: T1, hCaSR (Calcium sensing receptor) in stably transfected HEK293 cells (Homo sapiens, UniProt P41180)
# T1 construct: expressed in transfected cells; host or cells: HEK293 (stably transfected)
# T1 sequence (P41180 20-1078): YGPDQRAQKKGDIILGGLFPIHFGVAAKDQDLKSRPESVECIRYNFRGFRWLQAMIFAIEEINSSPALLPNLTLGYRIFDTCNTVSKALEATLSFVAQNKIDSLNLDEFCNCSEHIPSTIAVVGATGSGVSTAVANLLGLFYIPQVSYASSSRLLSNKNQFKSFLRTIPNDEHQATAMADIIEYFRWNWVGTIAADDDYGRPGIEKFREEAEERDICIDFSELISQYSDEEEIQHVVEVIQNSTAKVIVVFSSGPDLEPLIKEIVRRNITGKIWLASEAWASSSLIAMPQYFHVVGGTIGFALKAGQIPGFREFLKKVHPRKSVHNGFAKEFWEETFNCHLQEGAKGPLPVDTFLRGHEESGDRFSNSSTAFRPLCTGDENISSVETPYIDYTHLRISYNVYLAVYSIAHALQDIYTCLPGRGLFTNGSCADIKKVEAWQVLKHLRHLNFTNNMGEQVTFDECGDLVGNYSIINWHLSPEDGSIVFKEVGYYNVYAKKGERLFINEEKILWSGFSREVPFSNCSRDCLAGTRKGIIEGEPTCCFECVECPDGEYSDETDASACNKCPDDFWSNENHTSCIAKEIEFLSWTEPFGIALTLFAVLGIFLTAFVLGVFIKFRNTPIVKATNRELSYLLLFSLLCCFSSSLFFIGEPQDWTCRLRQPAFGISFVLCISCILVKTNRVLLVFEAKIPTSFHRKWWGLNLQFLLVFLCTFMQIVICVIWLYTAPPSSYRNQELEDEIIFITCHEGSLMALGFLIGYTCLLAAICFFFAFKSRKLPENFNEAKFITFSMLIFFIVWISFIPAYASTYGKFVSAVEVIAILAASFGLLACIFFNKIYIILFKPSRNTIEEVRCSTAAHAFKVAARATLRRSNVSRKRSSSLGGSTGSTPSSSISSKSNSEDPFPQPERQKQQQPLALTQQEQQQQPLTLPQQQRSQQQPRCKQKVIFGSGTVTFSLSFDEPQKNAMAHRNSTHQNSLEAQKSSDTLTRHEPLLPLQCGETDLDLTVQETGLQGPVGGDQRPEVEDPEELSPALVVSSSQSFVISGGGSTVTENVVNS
# Test: In-vitro assay of calcimimetics through modulation of calcium sensing receptor (CaSR): increase in intracellular calcium, FLIPR
# Format: cell-based
# Conditions: HEK293 cells expressing hCaSR; intracellular calcium (Fluo4NW, FLIPR); 0.3 mM CaCl2; 8-point assay; read-out: EC50 in range
# Protocol: In-Vitro Assay Method of Calcimemtics Through Modulation of Calcium Sensing Receptor (CaSR):
# The ability of the compounds to modulate Calcium sensing receptor is determined by measuring an increase in intracellular calcium [Ca^2+i]. Stably transfected HEK293 cells expressing hCaSR_pTriEx-3 hygro vector are developed. Cells are grown overnight on a 96-well plate to 80% confluency in Ham's F12 containing 20% FBS at 37° C., 5% CO2 Subsequently, cells are washed extensively with 20 mM HEPES buffer containing 126 mM NaCl2, 1 mM MgCl2 and 4 mM KCl2 to remove serum components that might interfere with the assay. Cells are loaded with calcium sensing Fluo4NW dye in HEPES base buffer containing 0.1% BSA and 1 mg/ml glucose for 30 minutes to measure changes in intracellular calcium. The activities of the compounds are measured in FLIPR using 0.3 mM CaCl2 in 20 mM HEPES base buffer. The effectiveness of the compound to modulate receptor activity is determined by calculating the EC50 responses for that compound in an 8-point assay and plotted using GraphPad Prism 5.
# The compounds prepared were tested using the above assay procedure and the results obtained are given below.
row,Compound,EC50 [nM]
1,C[C@@H](NCC1CN(c2cccc(C(F)(F)F)c2)CCO1)c1cccc2ccccc12 (stereo partly drawn) [compound 22],20 to 50
2,"C[C@@H](NCC1CN(c2ccc(CC(=O)O)cc2)C(=O)CO1)c1cccc2ccccc12 (stereo partly drawn) [compound 60, 2-(4-(2-((((R)-1-(Naphthalen-1-yl)ethyl)amino)methyl)-5-oxomorpholino)phenyl)acetic acid hydrochloride]",50 to 200
3,"C[C@@H](NCC1CN(c2ccc3c(c2)OC(F)(F)O3)C(=O)CO1)c1cccc2ccccc12 (stereo partly drawn) [compound 59, 4-(2,2-Difluorobenzo[d][1,3]dioxol-5-yl)-6-((((R)-1-(naphthalen-1-yl)ethyl)amino)methyl)morpholin-3-one hydrochloride]",20 to 50
4,"C[C@@H](NCC1CN(c2cc(C(=O)O)cc(C(F)(F)F)c2)CCO1)c1cccc2ccccc12 (single isomer, unassigned) [Example 150a, hydrochloride]",< 20
5,"COc1cccc(N2CCOC(CN[C@H](C)c3cccc4ccccc34)C2)c1 (single isomer, unassigned) [25b]",20 to 50
6,"C[C@@H](NCC1CN(CCc2ccc(F)cc2)C(=O)CO1)c1cccc2ccccc12 (single isomer, unassigned) [Example 98a, hydrochloride]",< 20
7,"C[C@@H](NCC1CN(c2ccccc2)CCO1)c1cccc2ccccc12 (single isomer, unassigned) [26a]",< 20
8,"C[C@@H](NCC1CN(Cc2cccc(C(F)(F)F)c2)C(=O)CO1)c1cccc2ccccc12 (single isomer, unassigned) [Example 70a, hydrochloride]",< 20
9,"C[C@@H](NCCC1CN(c2ccc(C(F)(F)F)c(C(=O)O)c2)CCO1)c1cccc2ccccc12 (single isomer, unassigned) [Example 110a, hydrochloride]",50 to 200
10,"C[C@@H](NCC1COCCN1c1cccc(C(F)(F)F)c1)c1cccc2ccccc12 (single isomer, unassigned) [Example-2a]",< 20
11,COc1cccc([C@@H](C)NCC2COCCN2c2ccc(C)cc2)c1 (stereo partly drawn) [compound 8],50 to 200
12,"COc1cccc([C@@H](C)NCC2COCCN2c2cccc(C(F)(F)F)c2)c1 (single isomer, unassigned) [4a]",20 to 50
13,"C[C@@H](NCC1CN(C2CCCC2)C(=O)CO1)c1cccc2ccccc12 (stereo partly drawn) [Example 76, 4-Cyclopentyl-6-((((R)-1-(naphthalen-1-yl)ethyl)amino)methyl)morpholin-3-one hydrochloride]",< 20
14,"COc1cccc([C@@H](C)NCC2COCCN2Cc2ccccc2)c1 (single isomer, unassigned) [Example-37b]",50 to 200
15,"COc1cccc([C@@H](C)NCC2COCCN2c2cccc(C)c2)c1 (single isomer, unassigned) [10b]",< 20
16,"C[C@@H](NCC1CN(c2ccc(C(F)(F)F)cc2)CCO1)c1cccc2ccccc12 (single isomer, unassigned) [33a]",< 20
17,"C[C@@H](NCCC1CN(c2ccc(C(F)(F)F)cc2)CCO1)c1cccc2ccccc12 (stereo partly drawn) [Example 105, (1R)-1-(Naphthalen-1-yl)-N-(2-(4-(4-(trifluoromethyl)phenyl)morpholin-2-yl)ethyl)ethanamine]",20 to 50
18,"C[C@@H](NCC1COCCN1Cc1cccc(C(F)(F)F)c1)c1cccc2ccccc12 (single isomer, unassigned) [Example-35b]",20 to 50
19,"C[C@@H](NCC1COCCN1c1ccccc1)c1cccc2ccccc12 (single isomer, unassigned) [Example-1a, hydrochloride]",< 20
20,"COc1cc([C@@H](C)NCC2CN(C3CCCC3)C(=O)CO2)ccc1F (stereo partly drawn) [Example 96, 4-Cyclopentyl-6-((((R)-1-(4-fluoro-3-methoxyphenyl)ethyl)amino)methyl)morpholin-3-one hydrochloride]",50 to 200
21,COc1cccc([C@@H](C)NCC2CN(c3ccccc3)CCO2)c1 (stereo partly drawn) [compound 32],50 to 200
22,"C[C@@H](NCC1CN(c2ccc(C(=O)O)cc2)CCO1)c1cccc2ccccc12 (stereo partly drawn) [Example 147, 4-(2-((((R)-1-(Naphthalen-1-yl)ethyl)amino)methyl)morpholino)benzoic acid hydrochloride]",50 to 200

# Continued, values first:
row,EC50 [nM],Compound
1,50 to 200,"CC(C)N1CC(CN[C@H](C)c2cccc3ccccc23)OCC1=O (single isomer, unassigned) [Example 93b, hydrochloride]"
2,20 to 50,COc1cccc([C@@H](C)NCC2COCCN2c2cccc(F)c2)c1 (stereo partly drawn) [compound 15]
3,< 20,"C[C@@H](NCC1CN(CC2CC2)C(=O)CO1)c1cccc2ccccc12 (single isomer, unassigned) [Example 97a, hydrochloride]"
4,< 20,"C[C@@H](NCC1CN(c2ccc(F)c(F)c2)C(=O)CO1)c1cccc2ccccc12 (single isomer, unassigned) [62a, hydrochloride]"
5,20 to 50,C[C@@H](NCC1COCCN1c1ccc(F)cc1)c1cccc2ccccc12 (stereo partly drawn) [compound 17]
6,50 to 200,"Cc1ccc(N2CCOC(CN[C@H](C)c3cccc4ccccc34)C2)cc1 (single isomer, unassigned) [27a]"
7,20 to 50,"C[C@@H](NCC1CN(c2ccc(F)c(F)c2)C(=O)CO1)c1cccc2ccccc12 (single isomer, unassigned) [62b, hydrochloride]"
8,< 20,C[C@@H](NCC1CN(c2ccc(F)cc2)CCO1)c1cccc2ccccc12 (stereo partly drawn) [compound 28]
9,50 to 200,"C[C@@H](NCC1CN(CC2CCCC2)C(=O)CO1)c1cccc2ccccc12 (single isomer, unassigned) [Example-69a]"
10,< 20,"Cc1cccc(N2CCOCC2CN[C@H](C)c2cccc3ccccc23)c1 (stereo partly drawn) [Example 120, (1R)-1-(Naphthalen-1-yl)-N-((4-(m-tolyl)morpholin-3-yl)methyl)ethanamine hydrochloride]"
11,50 to 200,COc1cccc([C@@H](C)NCC2COCCN2c2ccc(F)c(F)c2)c1 (stereo partly drawn) [compound 12]
12,50 to 200,"C[C@@H](NCC1COCCN1Cc1ccccc1)c1cccc2ccccc12 (single isomer, unassigned) [Example-36a]"
13,50 to 200,"COc1cc([C@@H](C)NCC2CN(c3ccc(F)c(F)c3)C(=O)CO2)ccc1F (single isomer, unassigned) [Example 152b, hydrochloride]"
14,50 to 200,"COc1cccc(N2CCOCC2CN[C@H](C)c2cccc3ccccc23)c1 (single isomer, unassigned) [5a]"
15,50 to 200,"Cc1cc(N2CCOC(CN[C@H](C)c3cccc4ccccc34)C2)ccc1C(=O)O (single isomer, unassigned) [Example 136b, hydrochloride]"
16,< 20,C[C@@H](NCC1COCCN1c1cccc(F)c1)c1cccc2ccccc12 (stereo partly drawn) [Example-9]
17,< 20,"COc1ccc(N2CC(CN[C@H](C)c3cccc4ccccc34)OCC2=O)cc1F (stereo partly drawn) [compound 61, 4-(3-Fluoro-4-methoxyphenyl)-6-((((R)-1-(naphthalen-1-yl)ethyl)amino)methyl)morpholin-3-one hydrochloride]"
18,< 20,"COc1cccc(N2CCOCC2CN[C@H](C)c2cccc3ccccc23)c1 (single isomer, unassigned) [5b]"
19,50 to 200,"COc1cccc([C@@H](C)NCC2COCCN2c2cccc(C)c2)c1 (single isomer, unassigned) [10a]"
20,20 to 50,"COc1cc([C@@H](C)NCC2CN(Cc3ccc(F)cc3)C(=O)CO2)ccc1F (single isomer, unassigned) [Example 101a, hydrochloride]"
